# The source made the active and inactive calls.
# Experiments:
# [1] = molecular target: Scavenger receptor class B member 1 (Mus musculus, UniProt Q61009); experiment: inhibitors of SR-BI mediated HDL lipid uptake, dose response, ldlA[mSR-BI] cells, fluorescence, cherry pick (AID 493194); format: functional, cell-based;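 further: cellular uptake of fluorescent DiI-labeled HDL measured as cell fluorescence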
# [2] = molecular target: T1, Dual specificity protein phosphatase 6 (Rattus norvegicus, UniProt Q64346)
# T1 sequence (Q64346 whole entry): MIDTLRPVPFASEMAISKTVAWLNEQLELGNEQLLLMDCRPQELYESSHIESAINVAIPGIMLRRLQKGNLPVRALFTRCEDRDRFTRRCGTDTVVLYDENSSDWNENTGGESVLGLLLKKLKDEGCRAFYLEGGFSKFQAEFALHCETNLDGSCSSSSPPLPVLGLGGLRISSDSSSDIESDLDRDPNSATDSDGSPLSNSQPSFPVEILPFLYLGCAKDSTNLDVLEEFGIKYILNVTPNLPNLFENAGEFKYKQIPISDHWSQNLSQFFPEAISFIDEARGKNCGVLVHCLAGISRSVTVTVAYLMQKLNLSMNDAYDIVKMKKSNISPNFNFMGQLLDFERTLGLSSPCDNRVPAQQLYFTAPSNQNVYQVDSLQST
# [3] = molecular target: Glyceraldehyde-3-phosphate dehydrogenase (Homo sapiens, UniProt P04406)
# [4] = molecular target: T1, Dual specificity protein phosphatase 6; format: functional
# [5] = molecular target: T2, Tyrosine-protein phosphatase non-receptor type 7 (Homo sapiens, UniProt P35236); format: functional
# T2 sequence (P35236 whole entry): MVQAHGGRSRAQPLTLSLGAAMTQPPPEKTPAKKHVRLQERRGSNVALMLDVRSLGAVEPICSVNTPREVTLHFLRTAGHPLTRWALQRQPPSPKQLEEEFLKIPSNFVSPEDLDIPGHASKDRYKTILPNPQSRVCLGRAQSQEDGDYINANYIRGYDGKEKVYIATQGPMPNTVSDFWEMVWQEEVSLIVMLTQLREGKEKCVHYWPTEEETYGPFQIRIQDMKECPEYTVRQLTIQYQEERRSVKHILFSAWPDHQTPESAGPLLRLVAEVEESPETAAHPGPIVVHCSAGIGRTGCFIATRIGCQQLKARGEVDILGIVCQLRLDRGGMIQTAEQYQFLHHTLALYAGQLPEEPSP
# Cytochrome P450 2C9 = Cytochrome P450 2C9 (Homo sapiens, UniProt P11712); conditions: Potency
# Cytochrome P450 2D6 [6] = molecular target: T3, Cytochrome P450 2D6 (Homo sapiens, UniProt P10635); experiment: qHTS Assay for Inhibitors and Substrates of Cytochrome P450 2D6. [Related pubchem assays: 410 ]; format: ADME; conditions: read-out: Potency
# [7] = molecular target: T4, Neuropeptides B/W receptor type 1 (Homo sapiens, UniProt P48145); experiment: Fluorescence-based dose response cell-based high throughput screening assay to identify antagonists of the G-protein coupled receptor 7 (GPR7). [Related pubchem assays: 1952 (Screening assay (GPR7 antagonists).), 1880 (Summary AID.)]; format: functional
# T4 sequence (P48145 whole entry): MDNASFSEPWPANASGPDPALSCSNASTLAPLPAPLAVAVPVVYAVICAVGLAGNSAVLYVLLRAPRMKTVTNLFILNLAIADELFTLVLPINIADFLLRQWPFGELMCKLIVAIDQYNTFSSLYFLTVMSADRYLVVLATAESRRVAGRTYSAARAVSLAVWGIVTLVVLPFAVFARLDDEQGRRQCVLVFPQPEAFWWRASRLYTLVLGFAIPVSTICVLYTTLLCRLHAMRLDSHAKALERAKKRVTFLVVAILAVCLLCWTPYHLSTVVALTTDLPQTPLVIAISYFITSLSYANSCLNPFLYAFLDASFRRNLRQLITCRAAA
# [8] = molecular target: Melanin-concentrating hormone receptor 1 (Homo sapiens, UniProt Q99705); experiment: Fluorescence-based counterscreen for antagonists of the G-protein coupled receptor 7 (GPR7): cell-based high throughput dose response assay to identify antagonists of the melanin-concentrating hormone receptor 1 (MCHR1).; format: functional
# BJ [9] = experiment: cells; format: functional, cell-based; conditions: Homo sapiens
# [10] = inhibitors of SNCA 5'UTR-driven reporter translation, confirmation, H4 neuroglioma cells, luminescence (AID 1988); format: functional, cell-based
# INS1 = experiment: beta cell apoptosis inhibitors, cytokine rescue, dose response, luminescence, retest (AID 449756); format: functional, cell-based; conditions: Rattus norvegicus;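 further: cell death triggered by IL-1 beta plus TNF-alpha plus IFN-gamma mixture; protective hits raise ATP signal compared with cytokine alone wells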
# Vero [11] = experiment: cells; format: functional; conditions: Chlorocebus sabaeus
# [12] = Luminescence Cell-Based Dose Response HTS to Identify Inhibitors of 5'UTR Stem-Loop Driven Prion Protein mRNA Translation in H4 Neuroglioblastoma Cells. [Related pubchem assays: 1827 (Project Summary), 1813 (Primary HTS)]; format: functional
# BJ [13] = experiment: cytotoxicity toward BJ-TERT-LT-ST fibroblasts, dose response, cell-based, RAS-independent, luminescence (AID 1935); format: functional; conditions: Homo sapiens;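 further: BJ fibroblasts immortalized with TERT plus LT and ST oncogenes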
# Beta-galactosidase = Beta-galactosidase (Escherichia coli, UniProt Q8VNN2); format: functional
# cells [14] = format: functional, cell-based
# [15] = cytotoxicity toward DRD oncogenic fibroblasts, dose response, cell-based, non-viral oncogenic, luminescence (AID 1934); format: functional; conditions: Homo sapiens
# Vero [16] = experiment: cells; format: functional, cell-based; conditions: Chlorocebus sabaeus
# [17] = inhibitors of firefly luciferase expression or activity, dose response, H4 neuroglioma cells, luminescence (AID 1990); format: functional, cell-based
# [18] = molecular target: T5, Kappa-type opioid receptor (Homo sapiens, UniProt P41145); format: functional
# BJ [19] = experiment: cytotoxicity toward Ras-transformed BJeLR fibroblasts, dose response, cell-based, alamar blue fluorescence, cherrypicked samples (AID 2631); format: functional; conditions: Homo sapiens;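 further: confirmatory dose-response assay in RAS-dependent BJ fibroblasts engineered with TERT, LT and ST, with cytotoxicity read by fluorescence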
# [20] = molecular target: T5, Kappa-type opioid receptor; format: functional; remark: listed apart in the source
# cells [21] = format: functional, cell-based; remark: listed apart in the source
# Streptococcus = experiment: Group A Streptococcus viability loss, dose response, counter-screen for streptokinase expression inhibitor project, luminescence, BacTiterGlo (AID 1915); format: functional, organism-based;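 further: potency for reduction of bacterial viability or growth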
# BJ [22] = experiment: cytotoxicity toward BJ-TERT fibroblasts, dose response, cell-based, RAS-independent, luminescence (AID 1933); format: functional; conditions: Homo sapiens
# [23] = tested on: Streptococcus sp. 'group A'; experiment: growth inhibition of control SK(-) GAS strain, dose response, counter-screen for streptokinase expression inhibitor project, luminescence, kanamycin, BacTiterGlo, confirmation (AID 1900); format: functional, organism-based
# HEK293 = experiment: cells; conditions: Homo sapiens;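 further: cells exposed to compound for 14 hours overnight before viability readout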
# [24] = molecular target: T6, Nucleotide-binding oligomerization domain-containing protein 1 (Homo sapiens, UniProt Q9Y239); experiment: NOD1 signaling inhibitors, SAR follow-up, revised (AID 2333); format: functional
# T6 sequence (Q9Y239 whole entry): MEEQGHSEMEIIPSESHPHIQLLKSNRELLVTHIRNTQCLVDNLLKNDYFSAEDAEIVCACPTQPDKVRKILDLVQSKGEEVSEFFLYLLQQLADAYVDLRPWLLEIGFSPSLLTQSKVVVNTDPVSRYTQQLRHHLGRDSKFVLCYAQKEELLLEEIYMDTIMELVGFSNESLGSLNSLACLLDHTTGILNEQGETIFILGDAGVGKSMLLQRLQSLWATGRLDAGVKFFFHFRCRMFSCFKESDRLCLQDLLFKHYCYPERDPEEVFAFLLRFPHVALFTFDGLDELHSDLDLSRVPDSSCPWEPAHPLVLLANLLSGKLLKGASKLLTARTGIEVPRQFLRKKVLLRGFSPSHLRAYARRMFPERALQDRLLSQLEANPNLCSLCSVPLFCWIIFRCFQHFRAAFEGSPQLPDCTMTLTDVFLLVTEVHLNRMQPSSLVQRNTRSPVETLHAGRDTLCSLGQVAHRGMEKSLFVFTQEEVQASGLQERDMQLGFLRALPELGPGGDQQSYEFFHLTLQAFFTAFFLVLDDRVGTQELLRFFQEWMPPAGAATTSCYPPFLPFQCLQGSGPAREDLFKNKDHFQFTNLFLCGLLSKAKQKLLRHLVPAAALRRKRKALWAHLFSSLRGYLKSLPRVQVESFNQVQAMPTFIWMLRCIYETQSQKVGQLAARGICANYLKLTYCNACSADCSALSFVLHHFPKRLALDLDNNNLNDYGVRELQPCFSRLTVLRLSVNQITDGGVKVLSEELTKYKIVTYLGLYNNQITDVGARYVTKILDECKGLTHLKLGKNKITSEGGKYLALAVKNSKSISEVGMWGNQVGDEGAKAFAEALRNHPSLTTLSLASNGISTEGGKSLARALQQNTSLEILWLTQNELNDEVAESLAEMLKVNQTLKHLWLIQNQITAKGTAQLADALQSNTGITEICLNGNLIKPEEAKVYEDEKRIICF
# [25] = molecular target: Nucleotide-binding oligomerization domain-containing protein 2 (Homo sapiens, UniProt Q9HC29); experiment: PubChem AID 2334; format: functional
# Tumor necrosis factor = Tumor necrosis factor (Homo sapiens, UniProt P01375); experiment: TNFa-triggered NF-kB activation inhibitors, SAR follow-up, cell-based, revised (AID 2337); format: functional
# Streptokinase A = molecular target: T7, Streptokinase A (Streptococcus pyogenes serotype M1, UniProt P10520); experiment: S. pyogenes streptokinase expression inhibitors, potency, dose response, plasminogen activation absorbance, OD405 (AID 1914); format: functional, Streptococcus pyogenes M1 GAS;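 further: secreted streptokinase activity via plasminogen activation per viability signal from cell pellet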
# T7 sequence (P10520 whole entry): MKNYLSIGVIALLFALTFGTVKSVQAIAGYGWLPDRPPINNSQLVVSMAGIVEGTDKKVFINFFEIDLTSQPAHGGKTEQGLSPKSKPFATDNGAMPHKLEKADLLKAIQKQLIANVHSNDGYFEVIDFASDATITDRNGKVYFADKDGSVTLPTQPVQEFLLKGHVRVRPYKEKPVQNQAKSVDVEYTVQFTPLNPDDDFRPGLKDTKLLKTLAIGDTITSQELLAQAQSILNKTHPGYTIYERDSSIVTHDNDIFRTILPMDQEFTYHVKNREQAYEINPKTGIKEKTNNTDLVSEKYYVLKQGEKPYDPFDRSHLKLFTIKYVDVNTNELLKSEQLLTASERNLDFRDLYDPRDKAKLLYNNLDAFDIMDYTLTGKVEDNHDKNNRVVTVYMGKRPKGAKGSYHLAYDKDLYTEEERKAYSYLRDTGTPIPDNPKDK
# Genome polyprotein = Genome polyprotein (dengue virus type 2, UniProt P29990); experiment: Dengue-2 NS5 methyltransferase inhibitors, primary screen, biochemical, confirmation dose response (AID 588689); format: functional
# Cytochrome P450 2D6 [26] = molecular target: T3, Cytochrome P450 2D6
# T3 sequence (P10635 whole entry): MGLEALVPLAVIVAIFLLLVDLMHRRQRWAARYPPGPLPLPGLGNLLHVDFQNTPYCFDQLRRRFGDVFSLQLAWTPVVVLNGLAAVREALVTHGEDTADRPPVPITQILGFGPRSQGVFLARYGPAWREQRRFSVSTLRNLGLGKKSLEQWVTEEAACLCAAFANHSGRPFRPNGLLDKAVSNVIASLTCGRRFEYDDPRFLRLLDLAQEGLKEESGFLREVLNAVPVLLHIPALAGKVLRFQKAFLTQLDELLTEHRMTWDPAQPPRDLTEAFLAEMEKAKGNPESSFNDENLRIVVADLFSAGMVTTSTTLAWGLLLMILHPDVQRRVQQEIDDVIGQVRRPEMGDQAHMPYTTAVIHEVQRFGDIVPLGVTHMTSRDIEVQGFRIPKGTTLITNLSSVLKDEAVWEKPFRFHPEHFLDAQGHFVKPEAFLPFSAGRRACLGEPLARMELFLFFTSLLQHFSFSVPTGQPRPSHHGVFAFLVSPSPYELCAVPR
# Sequence of Nucleotide-binding oligomerization domain-containing protein 2 (Q9HC29 whole entry, the tested form may be a part): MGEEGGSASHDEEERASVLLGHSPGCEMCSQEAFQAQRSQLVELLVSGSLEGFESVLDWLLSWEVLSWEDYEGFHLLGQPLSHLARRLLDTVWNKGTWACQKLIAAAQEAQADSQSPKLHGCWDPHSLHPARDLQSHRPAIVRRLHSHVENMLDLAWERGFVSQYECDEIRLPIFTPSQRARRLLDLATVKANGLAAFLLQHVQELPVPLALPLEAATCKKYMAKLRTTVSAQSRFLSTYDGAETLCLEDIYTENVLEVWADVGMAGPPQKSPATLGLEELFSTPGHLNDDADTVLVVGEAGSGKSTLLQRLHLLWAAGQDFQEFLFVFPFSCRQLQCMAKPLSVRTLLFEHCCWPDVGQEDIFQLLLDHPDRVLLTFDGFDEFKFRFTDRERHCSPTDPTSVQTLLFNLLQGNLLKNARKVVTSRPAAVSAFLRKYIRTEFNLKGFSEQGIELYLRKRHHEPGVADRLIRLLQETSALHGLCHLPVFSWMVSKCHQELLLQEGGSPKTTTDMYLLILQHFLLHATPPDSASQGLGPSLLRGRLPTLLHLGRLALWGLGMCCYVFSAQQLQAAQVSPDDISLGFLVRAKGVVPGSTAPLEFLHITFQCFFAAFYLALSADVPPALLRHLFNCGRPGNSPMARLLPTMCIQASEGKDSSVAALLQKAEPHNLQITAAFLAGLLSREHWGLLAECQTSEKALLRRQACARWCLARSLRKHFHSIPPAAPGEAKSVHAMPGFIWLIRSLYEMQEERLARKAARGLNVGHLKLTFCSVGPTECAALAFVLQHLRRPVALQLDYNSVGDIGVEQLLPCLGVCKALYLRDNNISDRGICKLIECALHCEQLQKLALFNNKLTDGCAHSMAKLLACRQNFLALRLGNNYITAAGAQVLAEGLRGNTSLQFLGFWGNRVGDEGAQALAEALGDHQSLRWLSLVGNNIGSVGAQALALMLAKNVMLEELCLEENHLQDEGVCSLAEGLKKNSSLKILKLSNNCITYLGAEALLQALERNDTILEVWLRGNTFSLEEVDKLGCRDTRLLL
# Sequence of Scavenger receptor class B member 1 (Q61009 whole entry): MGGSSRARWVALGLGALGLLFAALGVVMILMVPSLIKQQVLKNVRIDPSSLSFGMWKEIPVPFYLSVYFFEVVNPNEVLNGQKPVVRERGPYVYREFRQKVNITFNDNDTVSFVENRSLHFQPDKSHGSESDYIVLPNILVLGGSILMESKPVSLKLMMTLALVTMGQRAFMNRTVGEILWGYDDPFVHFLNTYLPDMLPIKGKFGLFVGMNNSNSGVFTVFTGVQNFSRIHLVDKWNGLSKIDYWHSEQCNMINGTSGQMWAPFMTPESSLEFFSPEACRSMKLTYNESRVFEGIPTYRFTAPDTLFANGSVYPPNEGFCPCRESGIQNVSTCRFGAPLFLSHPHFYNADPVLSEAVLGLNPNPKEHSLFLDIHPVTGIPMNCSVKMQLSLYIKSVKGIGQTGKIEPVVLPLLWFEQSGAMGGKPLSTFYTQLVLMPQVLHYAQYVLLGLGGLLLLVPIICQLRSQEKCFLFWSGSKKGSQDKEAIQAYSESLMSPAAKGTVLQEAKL
# T5 sequence (P41145 whole entry): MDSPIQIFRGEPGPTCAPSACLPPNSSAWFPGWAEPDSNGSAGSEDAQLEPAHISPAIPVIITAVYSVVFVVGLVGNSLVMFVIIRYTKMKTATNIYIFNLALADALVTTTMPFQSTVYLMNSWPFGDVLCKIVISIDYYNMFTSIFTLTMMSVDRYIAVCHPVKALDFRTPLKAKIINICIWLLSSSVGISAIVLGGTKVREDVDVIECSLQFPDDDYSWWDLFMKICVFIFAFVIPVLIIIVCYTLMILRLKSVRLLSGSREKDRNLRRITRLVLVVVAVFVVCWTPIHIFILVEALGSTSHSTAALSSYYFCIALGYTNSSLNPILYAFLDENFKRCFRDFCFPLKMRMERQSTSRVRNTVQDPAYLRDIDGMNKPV
# Sequence of Tumor necrosis factor (P01375 whole entry): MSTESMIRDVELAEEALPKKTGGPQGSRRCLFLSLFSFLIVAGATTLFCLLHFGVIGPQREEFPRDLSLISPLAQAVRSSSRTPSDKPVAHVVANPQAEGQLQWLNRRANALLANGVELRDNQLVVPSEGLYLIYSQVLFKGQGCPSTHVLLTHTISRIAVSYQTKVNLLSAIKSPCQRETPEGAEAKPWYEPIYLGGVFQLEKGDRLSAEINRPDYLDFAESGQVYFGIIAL
# Sequence of Glyceraldehyde-3-phosphate dehydrogenase (P04406 whole entry): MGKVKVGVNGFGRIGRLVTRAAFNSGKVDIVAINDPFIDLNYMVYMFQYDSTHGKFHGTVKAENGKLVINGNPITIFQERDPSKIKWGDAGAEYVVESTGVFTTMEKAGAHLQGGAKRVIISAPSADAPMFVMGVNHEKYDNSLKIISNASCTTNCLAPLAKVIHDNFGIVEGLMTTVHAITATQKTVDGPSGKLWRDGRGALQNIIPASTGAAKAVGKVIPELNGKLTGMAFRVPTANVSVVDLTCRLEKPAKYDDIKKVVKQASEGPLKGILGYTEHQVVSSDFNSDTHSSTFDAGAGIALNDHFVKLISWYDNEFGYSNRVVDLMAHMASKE
# Sequence of Melanin-concentrating hormone receptor 1 (Q99705 whole entry): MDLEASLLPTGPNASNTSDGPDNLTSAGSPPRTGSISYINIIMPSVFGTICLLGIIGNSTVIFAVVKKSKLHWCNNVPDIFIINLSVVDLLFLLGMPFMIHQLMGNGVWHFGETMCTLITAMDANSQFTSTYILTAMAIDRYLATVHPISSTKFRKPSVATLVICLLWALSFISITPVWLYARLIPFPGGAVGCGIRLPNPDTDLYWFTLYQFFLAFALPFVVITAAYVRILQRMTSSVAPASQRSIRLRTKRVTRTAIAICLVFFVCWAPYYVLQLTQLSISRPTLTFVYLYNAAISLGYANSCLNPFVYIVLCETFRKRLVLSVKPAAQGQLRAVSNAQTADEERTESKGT
# Sequence of Genome polyprotein (P29990 2492-3391 limits assumed): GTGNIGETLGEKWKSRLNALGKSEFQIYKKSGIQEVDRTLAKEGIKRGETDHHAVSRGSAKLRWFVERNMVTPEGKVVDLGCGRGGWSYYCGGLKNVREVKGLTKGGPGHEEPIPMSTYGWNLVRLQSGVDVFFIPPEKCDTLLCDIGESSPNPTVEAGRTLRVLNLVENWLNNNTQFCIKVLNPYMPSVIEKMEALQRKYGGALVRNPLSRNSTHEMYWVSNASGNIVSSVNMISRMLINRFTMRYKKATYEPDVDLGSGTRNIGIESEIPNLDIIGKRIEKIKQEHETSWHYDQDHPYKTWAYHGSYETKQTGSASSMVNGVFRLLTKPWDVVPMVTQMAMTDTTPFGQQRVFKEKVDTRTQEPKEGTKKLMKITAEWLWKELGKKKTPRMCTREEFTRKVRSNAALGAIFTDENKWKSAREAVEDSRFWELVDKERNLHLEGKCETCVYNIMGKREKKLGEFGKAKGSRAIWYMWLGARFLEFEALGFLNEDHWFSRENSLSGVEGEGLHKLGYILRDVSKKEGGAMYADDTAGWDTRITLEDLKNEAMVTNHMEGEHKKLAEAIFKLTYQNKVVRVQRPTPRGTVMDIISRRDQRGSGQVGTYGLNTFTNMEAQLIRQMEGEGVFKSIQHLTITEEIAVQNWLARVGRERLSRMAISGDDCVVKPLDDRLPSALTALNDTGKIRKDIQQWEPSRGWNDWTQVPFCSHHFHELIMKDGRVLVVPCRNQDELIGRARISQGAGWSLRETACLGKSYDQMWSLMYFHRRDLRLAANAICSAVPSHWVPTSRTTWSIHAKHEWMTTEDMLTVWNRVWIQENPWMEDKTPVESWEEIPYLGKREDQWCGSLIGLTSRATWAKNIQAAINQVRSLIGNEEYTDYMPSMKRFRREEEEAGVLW
# Sequence of Cytochrome P450 2C9 (P11712 whole entry): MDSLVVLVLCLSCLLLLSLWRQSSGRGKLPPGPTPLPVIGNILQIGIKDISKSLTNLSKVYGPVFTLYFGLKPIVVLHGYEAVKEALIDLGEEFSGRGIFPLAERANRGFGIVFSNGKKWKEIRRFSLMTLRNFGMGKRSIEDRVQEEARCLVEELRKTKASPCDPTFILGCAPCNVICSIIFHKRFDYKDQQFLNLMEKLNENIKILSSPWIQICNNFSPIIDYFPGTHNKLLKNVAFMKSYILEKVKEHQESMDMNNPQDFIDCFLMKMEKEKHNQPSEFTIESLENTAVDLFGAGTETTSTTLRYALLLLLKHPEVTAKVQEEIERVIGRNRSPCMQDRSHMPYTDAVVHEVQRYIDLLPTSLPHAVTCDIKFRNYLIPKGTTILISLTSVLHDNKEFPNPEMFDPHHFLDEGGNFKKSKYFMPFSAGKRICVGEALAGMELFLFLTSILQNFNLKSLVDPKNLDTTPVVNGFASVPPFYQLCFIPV
compound,measurement,setting,value
CCn1c(COc2c(C)cccc2C)nnc1SCC(=O)N1CCN(c2ccccc2)CC1,AC50,[1],23 µM (active)
CCCCCCn1c(=O)nc(NCc2ccccc2OC)[nH]c1=O,IC50,[2],> 100 µM (inactive)
same,IC50,[3],> 100 µM (not active)
same,IC50,[4],> 100 µM (inactive)
same,IC50,[5],> 100 µM (not active)
COC(=O)NC(/C(C(=O)OC)=C(\C)NCc1ccccc1)c1ccc(Cl)cc1 (centres undefined),AC50,Cytochrome P450 2C9,6.31 µM (inconclusive)
same,AC50,Cytochrome P450 2D6 [6],5.01 µM (inconclusive)
COc1ccccc1N(C(=O)c1ccco1)C(C(=O)NC1CCCCC1)c1cc(OC)c(OC)c(OC)c1 (centres undefined),IC50,[7],> 43.8 µM (not active)
same,IC50,[8],> 43.8 µM (not active)
Cc1ccccc1N=Nc1ccc(O)c2ncccc12,EC50,BJ [9],15.1 µM (inconclusive)
same,EC50,[10],2.03 µM (active)
same,AC50,INS1,1.65 µM (active)
same,CC50,Vero [11],5.63 µM (active)
same,EC50,[12],2.89 µM (active)
same,EC50,BJ [13],6.64 µM (inconclusive)
same,EC50,Beta-galactosidase,30.1 µM (active)
same,EC50,cells [14],7.93 µM (active)
same,EC50,[15],12.7 µM (active)
same,IC50,Vero [16],> 25 µM (active)
same,EC50,[17],5.81 µM (active)
same,IC50,[18],4.11 µM (active)
same,EC50,BJ [19],0.677 µM (active)
same,IC50,[20],> 32 µM
same,EC50,cells [21],46.8 µM (active)
same,EC50,Streptococcus,0.437 µM (active)
same,EC50,BJ [22],10.4 µM (inconclusive)
same,EC50,[23],< 0.06 µM (active)
N#C/C(=C(/O)COC(=O)CSc1ccc2ccccc2c1)c1nc2ccccc2[nH]1,IC50,HEK293,> 20 µM (inactive)
same,IC50,[24],> 20 µM (inactive)
same,IC50,[25],> 20 µM (inactive)
same,IC50,Tumor necrosis factor,> 20 µM (inactive)
CCOC(=O)C1Nc2c(O)ccc(C)c2C2C=CCC12 (centres undefined),IC50,[2],> 100 µM (inactive)
same,IC50,[3],> 100 µM (not active)
same,IC50,[4],> 100 µM (inactive)
same,IC50,[5],> 100 µM (not active)
N#Cc1c(-c2ccccc2)nc(SCc2cccc(C(F)(F)F)c2)[nH]c1=O,EC50,Streptokinase A,6.34 µM (active)
same,IC50,[24],6.48 µM (active)
same,IC50,[25],7.5 µM (active)
same,IC50,Genome polyprotein,42.7 µM (active)
same,IC50,Tumor necrosis factor,8.05 µM (active)
Cc1cc(-c2csc(N)n2)c(C)n1-c1ccc(Cl)c(Cl)c1,AC50,[1],12.9 µM (active)
Cc1ccc(NCC(=O)N/N=C/c2ccc(OC(=O)c3ccco3)cc2)cc1,IC50,[7],> 43.8 µM (not active)
same,IC50,[8],> 43.8 µM (not active)
same,AC50,Cytochrome P450 2D6 [26],15.8 µM (inconclusive)
